Laboratory results published in the NIST ThermoML archive (doi:10.1021/je0602925).
± gives the expanded uncertainty stated by the source.

Assay: activity coefficient (dimensionless); of the first substance listed, at infinite dilution; xn = mol fraction of the nth substance listed
Settings: Liquid, Chromatography, x1 = 0

Structure (SMILES) | activity coefficient (308.15 K) | activity coefficient (318.15 K) | activity coefficient (328.15 K)
C=CCCCCC [1-heptene] + CCCCCCCCCCCCCC[P+](CCCCCC)(CCCCCC)CCCCCC.F[B-](F)(F)F | 0.663 ± 0.045 | 0.647 ± 0.044 | 0.637 ± 0.044
C=CCCCCC [1-heptene] + CCCCCCCCCCCCCC[P+](CCCCCC)(CCCCCC)CCCCCC.O=S(=O)([N-]S(=O)(=O)C(F)(F)F)C(F)(F)F | 0.558 ± 0.04 | 0.549 ± 0.04 | 0.543 ± 0.04
C=CCCCCC [1-heptene] + CCCCCCCCCCCCCC[P+](CCCCCC)(CCCCCC)CCCCCC.[Cl-] | 0.523 ± 0.039 | 0.515 ± 0.038 | 0.511 ± 0.038
C#CCCCCC [1-heptyne] + CCCCCCCCCCCCCC[P+](CCCCCC)(CCCCCC)CCCCCC.F[B-](F)(F)F | 0.374 ± 0.033 | 0.389 ± 0.034 | 0.399 ± 0.034
C#CCCCCC [1-heptyne] + CCCCCCCCCCCCCC[P+](CCCCCC)(CCCCCC)CCCCCC.O=S(=O)([N-]S(=O)(=O)C(F)(F)F)C(F)(F)F | 0.485 ± 0.037 | 0.496 ± 0.038 | 0.502 ± 0.038
C#CCCCCC [1-heptyne] + CCCCCCCCCCCCCC[P+](CCCCCC)(CCCCCC)CCCCCC.[Cl-] | 0.479 ± 0.037 | 0.494 ± 0.038 | 0.504 ± 0.038
C#CCCCC [1-hexyne] + CCCCCCCCCCCCCC[P+](CCCCCC)(CCCCCC)CCCCCC.F[B-](F)(F)F | 0.345 ± 0.032 | 0.358 ± 0.033 | 0.366 ± 0.033
C#CCCCC [1-hexyne] + CCCCCCCCCCCCCC[P+](CCCCCC)(CCCCCC)CCCCCC.O=S(=O)([N-]S(=O)(=O)C(F)(F)F)C(F)(F)F | 0.454 ± 0.036 | 0.463 ± 0.036 | 0.468 ± 0.037
C#CCCCC [1-hexyne] + CCCCCCCCCCCCCC[P+](CCCCCC)(CCCCCC)CCCCCC.[Cl-] | 0.449 ± 0.036 | 0.461 ± 0.036 | 0.468 ± 0.037
C#CCCCCCC [1-octyne] + CCCCCCCCCCCCCC[P+](CCCCCC)(CCCCCC)CCCCCC.F[B-](F)(F)F | 0.387 ± 0.034 | 0.406 ± 0.034 | 0.417 ± 0.035
C#CCCCCCC [1-octyne] + CCCCCCCCCCCCCC[P+](CCCCCC)(CCCCCC)CCCCCC.O=S(=O)([N-]S(=O)(=O)C(F)(F)F)C(F)(F)F | 0.511 ± 0.038 | 0.524 ± 0.039 | 0.532 ± 0.039
C#CCCCCCC [1-octyne] + CCCCCCCCCCCCCC[P+](CCCCCC)(CCCCCC)CCCCCC.[Cl-] | 0.494 ± 0.038 | 0.514 ± 0.038 | 0.526 ± 0.039
c1ccccc1 [benzene] + CCCCCCCCCCCCCC[P+](CCCCCC)(CCCCCC)CCCCCC.F[B-](F)(F)F | 0.37 ± 0.033 | 0.367 ± 0.033 | 0.366 ± 0.033
c1ccccc1 [benzene] + CCCCCCCCCCCCCC[P+](CCCCCC)(CCCCCC)CCCCCC.O=S(=O)([N-]S(=O)(=O)C(F)(F)F)C(F)(F)F | 0.406 ± 0.034 | 0.403 ± 0.034 | 0.402 ± 0.034
c1ccccc1 [benzene] + CCCCCCCCCCCCCC[P+](CCCCCC)(CCCCCC)CCCCCC.[Cl-] | 0.408 ± 0.034 | 0.403 ± 0.034 | 0.4 ± 0.034
C1CCCCCC1 [cycloheptane] + CCCCCCCCCCCCCC[P+](CCCCCC)(CCCCCC)CCCCCC.F[B-](F)(F)F | 1 ± 0.063 | 0.979 ± 0.061 | 0.965 ± 0.061
C1CCCCCC1 [cycloheptane] + CCCCCCCCCCCCCC[P+](CCCCCC)(CCCCCC)CCCCCC.O=S(=O)([N-]S(=O)(=O)C(F)(F)F)C(F)(F)F | 0.787 ± 0.051 | 0.779 ± 0.051 | 0.774 ± 0.051
C1CCCCCC1 [cycloheptane] + CCCCCCCCCCCCCC[P+](CCCCCC)(CCCCCC)CCCCCC.[Cl-] | 0.861 ± 0.055 | 0.753 ± 0.05 | 0.763 ± 0.05
C1CCCCC1 [cyclohexane] + CCCCCCCCCCCCCC[P+](CCCCCC)(CCCCCC)CCCCCC.F[B-](F)(F)F | 0.73 ± 0.048 | 0.719 ± 0.048 | 0.712 ± 0.047
C1CCCCC1 [cyclohexane] + CCCCCCCCCCCCCC[P+](CCCCCC)(CCCCCC)CCCCCC.O=S(=O)([N-]S(=O)(=O)C(F)(F)F)C(F)(F)F | 0.612 ± 0.043 | 0.609 ± 0.043 | 0.607 ± 0.042
C1CCCCC1 [cyclohexane] + CCCCCCCCCCCCCC[P+](CCCCCC)(CCCCCC)CCCCCC.[Cl-] | 0.631 ± 0.044 | 0.627 ± 0.043 | 0.625 ± 0.043
C1CCCC1 [cyclopentane] + CCCCCCCCCCCCCC[P+](CCCCCC)(CCCCCC)CCCCCC.F[B-](F)(F)F | 0.638 ± 0.044 | 0.63 ± 0.044 | 0.625 ± 0.043
C1CCCC1 [cyclopentane] + CCCCCCCCCCCCCC[P+](CCCCCC)(CCCCCC)CCCCCC.O=S(=O)([N-]S(=O)(=O)C(F)(F)F)C(F)(F)F | 0.562 ± 0.04 | 0.559 ± 0.04 | 0.558 ± 0.04
C1CCCC1 [cyclopentane] + CCCCCCCCCCCCCC[P+](CCCCCC)(CCCCCC)CCCCCC.[Cl-] | 0.579 ± 0.041 | 0.576 ± 0.041 | 0.574 ± 0.041

Structure (SMILES) | activity coefficient (308.15 K) | activity coefficient (318.15 K) | activity coefficient (328.15 K)
CCO [ethanol] + CCCCCCCCCCCCCC[P+](CCCCCC)(CCCCCC)CCCCCC.F[B-](F)(F)F | 5.59 ± 0.38 | 5.36 ± 0.36 | 5.14 ± 0.35
CCO [ethanol] + CCCCCCCCCCCCCC[P+](CCCCCC)(CCCCCC)CCCCCC.O=S(=O)([N-]S(=O)(=O)C(F)(F)F)C(F)(F)F | 0.884 ± 0.056 | 0.894 ± 0.057 | 0.902 ± 0.057
CCO [ethanol] + CCCCCCCCCCCCCC[P+](CCCCCC)(CCCCCC)CCCCCC.[Cl-] | 0.74 ± 0.049 | 0.737 ± 0.049 | 0.735 ± 0.049
CCCCCCC [heptane] + CCCCCCCCCCCCCC[P+](CCCCCC)(CCCCCC)CCCCCC.F[B-](F)(F)F | 1 ± 0.063 | 0.97 ± 0.061 | 0.952 ± 0.06
CCCCCCC [heptane] + CCCCCCCCCCCCCC[P+](CCCCCC)(CCCCCC)CCCCCC.O=S(=O)([N-]S(=O)(=O)C(F)(F)F)C(F)(F)F | 0.783 ± 0.051 | 0.769 ± 0.05 | 0.761 ± 0.05
CCCCCCC [heptane] + CCCCCCCCCCCCCC[P+](CCCCCC)(CCCCCC)CCCCCC.[Cl-] | 0.816 ± 0.053 | 0.803 ± 0.052 | 0.795 ± 0.052
C=CCCCC [hex-1-ene] + CCCCCCCCCCCCCC[P+](CCCCCC)(CCCCCC)CCCCCC.F[B-](F)(F)F | 0.57 ± 0.041 | 0.558 ± 0.04 | 0.551 ± 0.04
C=CCCCC [hex-1-ene] + CCCCCCCCCCCCCC[P+](CCCCCC)(CCCCCC)CCCCCC.O=S(=O)([N-]S(=O)(=O)C(F)(F)F)C(F)(F)F | 0.501 ± 0.038 | 0.494 ± 0.038 | 0.49 ± 0.037
C=CCCCC [hex-1-ene] + CCCCCCCCCCCCCC[P+](CCCCCC)(CCCCCC)CCCCCC.[Cl-] | 0.477 ± 0.037 | 0.471 ± 0.037 | 0.468 ± 0.037
CCCCCC [hexane] + CCCCCCCCCCCCCC[P+](CCCCCC)(CCCCCC)CCCCCC.F[B-](F)(F)F | 0.968 ± 0.061 | 0.942 ± 0.059 | 0.925 ± 0.058
CCCCCC [hexane] + CCCCCCCCCCCCCC[P+](CCCCCC)(CCCCCC)CCCCCC.O=S(=O)([N-]S(=O)(=O)C(F)(F)F)C(F)(F)F | 0.766 ± 0.05 | 0.751 ± 0.049 | 0.742 ± 0.049
CCCCCC [hexane] + CCCCCCCCCCCCCC[P+](CCCCCC)(CCCCCC)CCCCCC.[Cl-] | 0.766 ± 0.05 | 0.753 ± 0.05 | 0.746 ± 0.049
CO [methanol] + CCCCCCCCCCCCCC[P+](CCCCCC)(CCCCCC)CCCCCC.F[B-](F)(F)F | 6.68 ± 0.46 | 6.38 ± 0.43 | 6.1 ± 0.42
CO [methanol] + CCCCCCCCCCCCCC[P+](CCCCCC)(CCCCCC)CCCCCC.O=S(=O)([N-]S(=O)(=O)C(F)(F)F)C(F)(F)F | 0.942 ± 0.059 | 0.958 ± 0.06 | 0.989 ± 0.062
CO [methanol] + CCCCCCCCCCCCCC[P+](CCCCCC)(CCCCCC)CCCCCC.[Cl-] | 0.887 ± 0.056 | 0.879 ± 0.056 | 0.873 ± 0.056
C=CCCCCCC [oct-1-ene] + CCCCCCCCCCCCCC[P+](CCCCCC)(CCCCCC)CCCCCC.F[B-](F)(F)F | 0.769 ± 0.05 | 0.748 ± 0.049 | 0.734 ± 0.049
C=CCCCCCC [oct-1-ene] + CCCCCCCCCCCCCC[P+](CCCCCC)(CCCCCC)CCCCCC.O=S(=O)([N-]S(=O)(=O)C(F)(F)F)C(F)(F)F | 0.617 ± 0.043 | 0.605 ± 0.042 | 0.598 ± 0.042
C=CCCCCCC [oct-1-ene] + CCCCCCCCCCCCCC[P+](CCCCCC)(CCCCCC)CCCCCC.[Cl-] | 0.567 ± 0.041 | 0.557 ± 0.04 | 0.552 ± 0.04
CCCCCCCC [octane] + CCCCCCCCCCCCCC[P+](CCCCCC)(CCCCCC)CCCCCC.F[B-](F)(F)F | 1.15 ± 0.073 | 1.11 ± 0.071 | 1.09 ± 0.069
CCCCCCCC [octane] + CCCCCCCCCCCCCC[P+](CCCCCC)(CCCCCC)CCCCCC.O=S(=O)([N-]S(=O)(=O)C(F)(F)F)C(F)(F)F | 0.843 ± 0.054 | 0.825 ± 0.053 | 0.814 ± 0.053
CCCCCCCC [octane] + CCCCCCCCCCCCCC[P+](CCCCCC)(CCCCCC)CCCCCC.[Cl-] | 0.847 ± 0.054 | 0.831 ± 0.054 | 0.821 ± 0.053
CCCCC [pentane] + CCCCCCCCCCCCCC[P+](CCCCCC)(CCCCCC)CCCCCC.F[B-](F)(F)F | 0.722 ± 0.048 | 0.706 ± 0.047 | 0.695 ± 0.047
CCCCC [pentane] + CCCCCCCCCCCCCC[P+](CCCCCC)(CCCCCC)CCCCCC.O=S(=O)([N-]S(=O)(=O)C(F)(F)F)C(F)(F)F | 0.611 ± 0.043 | 0.602 ± 0.042 | 0.597 ± 0.042
